Earlier results in article PMC5078025, “Necrosis-inducing peptide has the beneficial effect on killing tumor cells through neuropilin (NRP-1) targeting” (Oncotarget, 2016).

Tested on: various tumor cells
Conditions: four leucine residues of MTD replaced by alanine; cited from earlier work
Excerpt: We reported a 10-residue long, pro-necrotic peptide derived from the mitochondrial targeting domain (MTD) located in the C-terminal region of Noxa, a BH-3 only protein of Bcl-2 family. The MTD region of Noxa is responsible not only for mitochondrial targeting of Noxa but also for mitochondrial fragmentation induced by Noxa. Two […]) in the region of MTD play a key role in mitochondrial fragmentation induced by Noxa. […] Therefore, we determined whether TU17:MTD could discriminate tumor and normal cells in vitro.

KLLNLISKLF [MTD]
killing activity and mitochondrial targeting activity: abolishes the killing activity and mitochondrial targeting activity
